Results reported in PMC6370856, “Peptidyl prolyl cis/trans isomerase activity on the cell surface correlates with extracellular matrix development” (Communications Biology, 2019).

Key:
[1] = system: collagen hydrogel (Type I, rat-tail); test: Step-strain rheological measurement, self-healing of collagen hydrogel
Experimental: Another important feature of the dynamic ECMs is their self-healing property, which can be tested using a step-strain rheological measurement. A strong strain is applied to liquify the materials, and the recovery of storage modulus is followed (self-healing) (Fig. 1b). Collagen hydrogel can only partially recover its storage modulus after the first cycle. The rate and extent of recovery were unchanged over the following cycles.
(§1) To minimize sample evaporation at 37 °C, a tissue paper wet in HEPEs buffer (10 mM, pH 7.8) was placed inside the H-PTD chamber to increase the humidity. […] The cone and plate were treated with plasma for 5 min to increase the hydrophilicity of the metal surface.

fibrin hydrogel = test: Stiffness (storage modulus) of fibrin gel by rheometer; details: for Storage Modulus Mean: fibrin gel
Experimental: as §1
Fibrin gel: Fibrinogen (Shanghai Laishi Xuezhipin Limited Company) was dissolved in PBS with a concentration of 22.2 mg mL^−1 overnight at room temperature with gentle shaking and aliquoted in protein low-binding tubes (45 µL per tube). […] Fifty microliters of thrombin (4 EU mL^−1 in PBS with 1.8 mM CaCl2) was added and pipetted up and down ten times. Then, it was transferred to the rheometer plate for measurement. […] For each condition, two independent experiments were performed (Fig. 1a and Supplementary Fig. 1).

CypA: recombinant cyclophilin A, a PPIase, expressed in E. coli
stiffness and extent of recovery in the self-healing process of collagen hydrogel [1]: remarkably enhanced
effect on storage modulus of fibrin hydrogel (fibrin hydrogel; 1 µM CypA): remarkably enhanced
Storage Modulus Mean (fibrin hydrogel; 1 micromolar CypA, 3 min): 56.652 Pa
Storage Modulus Mean (fibrin hydrogel; 1 micromolar CypA, 3.5 min): 58.3965 Pa
Storage Modulus Mean (fibrin hydrogel; 1 micromolar CypA, 4 min): 59.006 Pa
Storage Modulus Mean (fibrin hydrogel; 1 micromolar CypA, 4.5 min): 60.5775 Pa
Storage Modulus Mean (fibrin hydrogel; 1 micromolar CypA, 5 min): 62.605 Pa
Storage Modulus Mean (fibrin hydrogel; 1 micromolar CypA, 6 min): 64.745 Pa
Storage Modulus Mean (fibrin hydrogel; 1 micromolar CypA, 6.5 min): 65.763 Pa
Storage Modulus Mean (fibrin hydrogel; 1 micromolar CypA, 7 min): 66.7405 Pa
Storage Modulus Mean (fibrin hydrogel; 1 micromolar CypA, 7.5 min): 67.652 Pa
Storage Modulus Mean (fibrin hydrogel; 1 micromolar CypA, 8 min): 68.8195 Pa
Storage Modulus Mean (fibrin hydrogel; 1 micromolar CypA, 8.5 min): 69.705 Pa
Storage Modulus Mean (fibrin hydrogel; 1 micromolar CypA, 9 min): 70.143 Pa
Storage Modulus Mean (fibrin hydrogel; 1 micromolar CypA, 9.5 min): 71.2125 Pa
Storage Modulus Mean (fibrin hydrogel; 1 micromolar CypA, 10 min): 72.402 Pa
Storage Modulus Mean (fibrin hydrogel; 1 micromolar CypA, 11 min): 74.113 Pa
Storage Modulus Mean (fibrin hydrogel; 1 micromolar CypA, 12 min): 75.428 Pa
Storage Modulus Mean (fibrin hydrogel; 1 micromolar CypA, 12.5 min): 75.9135 Pa
Storage Modulus Mean (fibrin hydrogel; 1 micromolar CypA, 13 min): 76.613 Pa
Storage Modulus Mean (fibrin hydrogel; 1 micromolar CypA, 14 min): 77.9915 Pa
Storage Modulus Mean (fibrin hydrogel; 1 micromolar CypA, 15 min): 78.877 Pa
Storage Modulus Mean (fibrin hydrogel; 3 micromolar CypA, 3 min): 56.9022 Pa
Storage Modulus Mean (fibrin hydrogel; 3 micromolar CypA, 3.5 min): 58.8285 Pa
Storage Modulus Mean (fibrin hydrogel; 3 micromolar CypA, 4 min): 60.4529 Pa
Storage Modulus Mean (fibrin hydrogel; 3 micromolar CypA, 5 min): 63.4816 Pa
Storage Modulus Mean (fibrin hydrogel; 3 micromolar CypA, 6 min): 65.1141 Pa
Storage Modulus Mean (fibrin hydrogel; 3 micromolar CypA, 6.5 min): 66.9921 Pa
Storage Modulus Mean (fibrin hydrogel; 3 micromolar CypA, 7 min): 68.0463 Pa
Storage Modulus Mean (fibrin hydrogel; 3 micromolar CypA, 7.5 min): 69.6441 Pa
Storage Modulus Mean (fibrin hydrogel; 3 micromolar CypA, 8 min): 70.5045 Pa
Storage Modulus Mean (fibrin hydrogel; 3 micromolar CypA, 8.5 min): 71.5921 Pa
Storage Modulus Mean (fibrin hydrogel; 3 micromolar CypA, 9 min): 72.9987 Pa
Storage Modulus Mean (fibrin hydrogel; 3 micromolar CypA, 9.5 min): 73.9279 Pa
Storage Modulus Mean (fibrin hydrogel; 3 micromolar CypA, 10 min): 75.4268 Pa
Storage Modulus Mean (fibrin hydrogel; 3 micromolar CypA, 11 min): 76.965 Pa
Storage Modulus Mean (fibrin hydrogel; 3 micromolar CypA, 12 min): 78.6581 Pa
Storage Modulus Mean (fibrin hydrogel; 3 micromolar CypA, 12.5 min): 79.6539 Pa
Storage Modulus Mean (fibrin hydrogel; 3 micromolar CypA, 13 min): 80.8472 Pa
Storage Modulus Mean (fibrin hydrogel; 3 micromolar CypA, 14 min): 81.859 Pa
Storage Modulus Mean (fibrin hydrogel; 3 micromolar CypA, 15 min): 84.0373 Pa
Storage Modulus Mean (fibrin hydrogel; 9 micromolar CypA, 3 min): 62.185 Pa
Storage Modulus Mean (fibrin hydrogel; 9 micromolar CypA, 3.5 min): 63.846 Pa
Storage Modulus Mean (fibrin hydrogel; 9 micromolar CypA, 4 min): 65.982 Pa
Storage Modulus Mean (fibrin hydrogel; 9 micromolar CypA, 4.5 min): 68.114 Pa
Storage Modulus Mean (fibrin hydrogel; 9 micromolar CypA, 5 min): 69.837 Pa
Storage Modulus Mean (fibrin hydrogel; 9 micromolar CypA, 6 min): 72.811 Pa
Storage Modulus Mean (fibrin hydrogel; 9 micromolar CypA, 6.5 min): 74.461 Pa
Storage Modulus Mean (fibrin hydrogel; 9 micromolar CypA, 7 min): 75.619 Pa
Storage Modulus Mean (fibrin hydrogel; 9 micromolar CypA, 7.5 min): 77.1405 Pa
Storage Modulus Mean (fibrin hydrogel; 9 micromolar CypA, 8 min): 78.5045 Pa
Storage Modulus Mean (fibrin hydrogel; 9 micromolar CypA, 8.5 min): 79.81 Pa
Storage Modulus Mean (fibrin hydrogel; 9 micromolar CypA, 9 min): 80.8145 Pa
Storage Modulus Mean (fibrin hydrogel; 9 micromolar CypA, 9.5 min): 82.609 Pa
Storage Modulus Mean (fibrin hydrogel; 9 micromolar CypA, 10 min): 83.584 Pa
Storage Modulus Mean (fibrin hydrogel; 9 micromolar CypA, 11 min): 86.0735 Pa
Storage Modulus Mean (fibrin hydrogel; 9 micromolar CypA, 12 min): 88.4775 Pa
Storage Modulus Mean (fibrin hydrogel; 9 micromolar CypA, 12.5 min): 89.3905 Pa
Storage Modulus Mean (fibrin hydrogel; 9 micromolar CypA, 13 min): 90.5025 Pa
Storage Modulus Mean (fibrin hydrogel; 9 micromolar CypA, 14 min): 91.758 Pa
Storage Modulus Mean (fibrin hydrogel; 9 micromolar CypA, 15 min): 94.897 Pa
Storage Modulus Mean (fibrin hydrogel; 9 micromolar CypA, 15.5 min): 96.242 Pa
Storage Modulus Mean (fibrin hydrogel; 20 micromolar CypA, 3 min): 48.845 Pa
Storage Modulus Mean (fibrin hydrogel; 20 micromolar CypA, 3.5 min): 49.5435 Pa
Storage Modulus Mean (fibrin hydrogel; 20 micromolar CypA, 4 min): 50.3955 Pa
Storage Modulus Mean (fibrin hydrogel; 20 micromolar CypA, 4.5 min): 50.963 Pa
Storage Modulus Mean (fibrin hydrogel; 20 micromolar CypA, 5 min): 51.714 Pa
Storage Modulus Mean (fibrin hydrogel; 20 micromolar CypA, 6 min): 52.522 Pa
Storage Modulus Mean (fibrin hydrogel; 20 micromolar CypA, 6.5 min): 53.309 Pa
Storage Modulus Mean (fibrin hydrogel; 20 micromolar CypA, 7 min): 53.9025 Pa
Storage Modulus Mean (fibrin hydrogel; 20 micromolar CypA, 7.5 min): 54.3695 Pa
Storage Modulus Mean (fibrin hydrogel; 20 micromolar CypA, 8 min): 54.713 Pa
Storage Modulus Mean (fibrin hydrogel; 20 micromolar CypA, 8.5 min): 55.308 Pa
Storage Modulus Mean (fibrin hydrogel; 20 micromolar CypA, 9 min): 55.0885 Pa
Storage Modulus Mean (fibrin hydrogel; 20 micromolar CypA, 9.5 min): 56.131 Pa
Storage Modulus Mean (fibrin hydrogel; 20 micromolar CypA, 10 min): 56.586 Pa
Storage Modulus Mean (fibrin hydrogel; 20 micromolar CypA, 11 min): 57.3845 Pa
Storage Modulus Mean (fibrin hydrogel; 20 micromolar CypA, 12 min): 58.3285 Pa
Storage Modulus Mean (fibrin hydrogel; 20 micromolar CypA, 12.5 min): 58.642 Pa
Storage Modulus Mean (fibrin hydrogel; 20 micromolar CypA, 14 min): 59.019 Pa
Storage Modulus Mean (fibrin hydrogel; 20 micromolar CypA, 15 min): 59.9075 Pa
Storage Modulus Mean (fibrin hydrogel; 20 micromolar CypA, 15.5 min): 60.0285 Pa
